In ChEMBL document CHEMBL1201862, “PubChem BioAssay data set” (2004):
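How tested: cells in 96-well plates exposed to compound for 48 hours at five concentrations. At the GI50, growth is halved.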 Activity calls are given as the source filed them. Rule as the data show it: active = GI50 up to about 1.1 µM and inactive = higher.

How the values were obtained:
Assay in all cases: DTP human tumour cell line panel, 48 h
M14 = tested on: M14
PC-3 = tested on: PC-3
OVCAR-3 = tested on: OVCAR-3
OVCAR-5 = tested on: OVCAR-5
MOLT-4 = tested on: MOLT-4
KM12 = tested on: KM12
DU-145 = tested on: DU-145
OVCAR-8 = tested on: OVCAR-8
UACC-257 = tested on: UACC-257
SK-MEL-2 = tested on: SK-MEL-2
BT-549 = tested on: BT-549
UO-31 = tested on: UO-31
SF-268 = tested on: SF-268
K562 = tested on: K562
SN12C = tested on: SN12C
NCI/ADR-RES = tested on: NCI/ADR-RES
MDA-MB-231 = tested on: MDA-MB-231
Malme-3M = tested on: Malme-3M
TK-10 = tested on: TK-10
SW-620 = tested on: SW-620
OVCAR-4 = tested on: OVCAR-4
HL-60 = tested on: HL-60
786-0 = tested on: 786-0
SK-MEL-5 = tested on: SK-MEL-5
COLO 205 = tested on: COLO 205
HCT-15 = tested on: HCT-15
MDA-N = tested on: MDA-N
LOX IMVI = tested on: LOX IMVI
A498 = tested on: A498
SNB-75 = tested on: SNB-75
U-251 = tested on: U-251
SK-MEL-28 = tested on: SK-MEL-28
HT-29 = tested on: HT-29
A549 = tested on: A549
HCT-116 = tested on: HCT-116
RPMI-8226 = tested on: RPMI-8226
HCC 2998 = tested on: HCC 2998
IGROV-1 = tested on: IGROV-1
SNB-19 = tested on: SNB-19
HOP-92 = tested on: HOP-92
SF-295 = tested on: SF-295
MCF7 = tested on: MCF7
UACC-62 = tested on: UACC-62
SK-OV-3 = tested on: SK-OV-3
NCI-H460 = tested on: NCI-H460
Hs-578T = tested on: Hs-578T
SR = tested on: SR
HOP-62 = tested on: HOP-62
MDA-MB-435 = tested on: MDA-MB-435
ACHN = tested on: ACHN
NCI-H23 = tested on: NCI-H23
SF-539 = tested on: SF-539
CCRF-CEM = tested on: CCRF-CEM
EKVX = tested on: EKVX
RXF 393 = tested on: RXF 393
T47D = tested on: T47D
NCI-H522 = tested on: NCI-H522
NCI-H226 = tested on: NCI-H226

With `O=C(NS(=O)(=O)Nc1ccc(Cl)cc1)OCc1ccc(Cl)cc1Cl` the GI50 (M14) was 41 µM (inactive), the GI50 (PC-3) was 31.4 µM (inactive) and the GI50 (OVCAR-3) was 17.7 µM (inactive). For the same molecule, the GI50 (OVCAR-5) was 24.2 µM (inactive), the GI50 (MOLT-4) was 46.2 µM (inactive) and the GI50 (KM12) was 21.4 µM (inactive). The GI50 (DU-145) was 21.3 µM (inactive), the GI50 (OVCAR-8) was 31.3 µM (inactive) and the GI50 (UACC-257) was 46.6 µM (inactive). The GI50 (SK-MEL-2) was 28.8 µM (inactive), the GI50 (BT-549) was 28.4 µM (inactive) and the GI50 (UO-31) was 17.5 µM (inactive). The GI50 (SF-268) was 1.02 µM (active), the GI50 (K562) was 28.4 µM (inactive) and the GI50 (SN12C) was 25.3 µM (inactive). For the same molecule, the GI50 (NCI/ADR-RES) was 21.9 µM (inactive), the GI50 (MDA-MB-231) was 23.3 µM (inactive) and the GI50 (Malme-3M) was 19.1 µM (inactive). For the same molecule, the GI50 (TK-10) was 16 µM (inactive), the GI50 (SW-620) was 33.3 µM (inactive) and the GI50 (OVCAR-4) was 24 µM (inactive). The GI50 (HL-60) was 25.3 µM (inactive), the GI50 (786-0) was 34.6 µM (inactive) and the GI50 (SK-MEL-5) was 17.8 µM (inactive). The GI50 (COLO 205) was 16.7 µM (inactive), the GI50 (HCT-15) was 34.3 µM and the GI50 (MDA-N) was 14.7 µM (inactive). For the same molecule, the GI50 (LOX IMVI) was 22.6 µM (inactive), the GI50 (A498) was 3.94 µM (inactive) and the GI50 (SNB-75) was 35.7 µM (inactive). The GI50 (U-251) was 28.6 µM (inactive), the GI50 (SK-MEL-28) was 29.6 µM (inactive) and the GI50 (HT-29) was 20.5 µM (inactive). The GI50 (A549) was 21.8 µM (inactive), the GI50 (HCT-116) was 20 µM (inactive) and the GI50 (RPMI-8226) was 54.5 µM (inactive). The GI50 (HCC 2998) was 12.1 µM (inactive), the GI50 (IGROV-1) was 17.8 µM (inactive) and the GI50 (SNB-19) was 18.6 µM (inactive). For the same molecule, the GI50 (HOP-92) was 24.7 µM (inactive), the GI50 (SF-295) was 17.2 µM (inactive) and the GI50 (MCF7) was 14.8 µM (inactive). For the same molecule, the GI50 (UACC-62) was 14 µM (inactive), the GI50 (SK-OV-3) was 21.1 µM (inactive) and the GI50 (NCI-H460) was 13.4 µM (inactive). For the same molecule, the GI50 (Hs-578T) was 14.2 µM (inactive), the GI50 (SR) was 38.2 µM (inactive) and the GI50 (HOP-62) was 36.7 µM (inactive). For the same molecule, the GI50 (MDA-MB-435) was 22.1 µM (inactive), the GI50 (ACHN) was 38.5 µM (inactive) and the GI50 (NCI-H23) was 20.2 µM (inactive). The GI50 (SF-539) was 19.9 µM (inactive) and the GI50 (CCRF-CEM) was 57 µM (inactive).
For `O=P1(Oc2ccc(Cl)cc2)OCCS1` (centres undefined), the GI50 (EKVX) was > 100 µM (inactive), the GI50 (M14) was > 100 µM (inactive) and the GI50 (PC-3) was > 100 µM (inactive). The GI50 (RXF 393) was > 100 µM (inactive), the GI50 (OVCAR-5) was > 100 µM (inactive) and the GI50 (DU-145) was > 100 µM (inactive). The GI50 (OVCAR-8) was > 100 µM (inactive), the GI50 (UACC-257) was > 100 µM (inactive) and the GI50 (SK-MEL-2) was > 100 µM (inactive). The GI50 (BT-549) was > 100 µM (inactive), the GI50 (UO-31) was > 100 µM (inactive) and the GI50 (SF-268) was > 100 µM (inactive). For the same molecule, the GI50 (SN12C) was > 100 µM (inactive), the GI50 (T47D) was > 100 µM (inactive) and the GI50 (NCI/ADR-RES) was > 100 µM (inactive). For the same molecule, the GI50 (MDA-MB-231) was > 100 µM (inactive), the GI50 (Malme-3M) was > 100 µM (inactive) and the GI50 (TK-10) was > 100 µM (inactive). The GI50 (NCI-H522) was > 100 µM (inactive), the GI50 (SW-620) was > 100 µM (inactive) and the GI50 (HL-60) was 80.7 µM (inactive). The GI50 (786-0) was > 100 µM (inactive), the GI50 (SK-MEL-5) was > 100 µM (inactive) and the GI50 (COLO 205) was > 100 µM (inactive). The GI50 (HCT-15) was > 100 µM, the GI50 (MDA-N) was > 100 µM (inactive) and the GI50 (LOX IMVI) was > 100 µM (inactive). For the same molecule, the GI50 (A498) was > 100 µM (inactive), the GI50 (SNB-75) was > 100 µM (inactive) and the GI50 (U-251) was > 100 µM (inactive). For the same molecule, the GI50 (SK-MEL-28) was > 100 µM (inactive), the GI50 (HT-29) was > 100 µM (inactive) and the GI50 (A549) was > 100 µM (inactive). For the same molecule, the GI50 (HCT-116) was > 100 µM (inactive), the GI50 (NCI-H226) was > 100 µM (inactive) and the GI50 (RPMI-8226) was > 100 µM (inactive). For the same molecule, the GI50 (HCC 2998) was > 100 µM (inactive), the GI50 (IGROV-1) was > 100 µM (inactive) and the GI50 (SNB-19) was > 100 µM (inactive). The GI50 (HOP-92) was > 100 µM (inactive), the GI50 (SF-295) was > 100 µM (inactive) and the GI50 (UACC-62) was > 100 µM (inactive). The GI50 (SK-OV-3) was > 100 µM (inactive), the GI50 (NCI-H460) was > 100 µM (inactive) and the GI50 (Hs-578T) was > 100 µM (inactive). The GI50 (SR) was > 100 µM (inactive), the GI50 (HOP-62) was > 100 µM (inactive) and the GI50 (ACHN) was > 100 µM (inactive). For the same molecule, the GI50 (NCI-H23) was > 100 µM (inactive), the GI50 (SF-539) was > 100 µM (inactive) and the GI50 (CCRF-CEM) was > 100 µM (inactive).
